Results on 25 compounds are retold here after patent US8754071B2 (priority 2011, dated 2014).

The target in one test is T1, c-kit (Homo sapiens, UniProt P10721).
T1 construct: human Mo7e cells which endogenously express c-kit; endogenous in cells; host or cells: human Mo7e cells (promegakaryocytic leukemia line), stimulated with human recombinant SCF
T1 sequence (P10721 26-976): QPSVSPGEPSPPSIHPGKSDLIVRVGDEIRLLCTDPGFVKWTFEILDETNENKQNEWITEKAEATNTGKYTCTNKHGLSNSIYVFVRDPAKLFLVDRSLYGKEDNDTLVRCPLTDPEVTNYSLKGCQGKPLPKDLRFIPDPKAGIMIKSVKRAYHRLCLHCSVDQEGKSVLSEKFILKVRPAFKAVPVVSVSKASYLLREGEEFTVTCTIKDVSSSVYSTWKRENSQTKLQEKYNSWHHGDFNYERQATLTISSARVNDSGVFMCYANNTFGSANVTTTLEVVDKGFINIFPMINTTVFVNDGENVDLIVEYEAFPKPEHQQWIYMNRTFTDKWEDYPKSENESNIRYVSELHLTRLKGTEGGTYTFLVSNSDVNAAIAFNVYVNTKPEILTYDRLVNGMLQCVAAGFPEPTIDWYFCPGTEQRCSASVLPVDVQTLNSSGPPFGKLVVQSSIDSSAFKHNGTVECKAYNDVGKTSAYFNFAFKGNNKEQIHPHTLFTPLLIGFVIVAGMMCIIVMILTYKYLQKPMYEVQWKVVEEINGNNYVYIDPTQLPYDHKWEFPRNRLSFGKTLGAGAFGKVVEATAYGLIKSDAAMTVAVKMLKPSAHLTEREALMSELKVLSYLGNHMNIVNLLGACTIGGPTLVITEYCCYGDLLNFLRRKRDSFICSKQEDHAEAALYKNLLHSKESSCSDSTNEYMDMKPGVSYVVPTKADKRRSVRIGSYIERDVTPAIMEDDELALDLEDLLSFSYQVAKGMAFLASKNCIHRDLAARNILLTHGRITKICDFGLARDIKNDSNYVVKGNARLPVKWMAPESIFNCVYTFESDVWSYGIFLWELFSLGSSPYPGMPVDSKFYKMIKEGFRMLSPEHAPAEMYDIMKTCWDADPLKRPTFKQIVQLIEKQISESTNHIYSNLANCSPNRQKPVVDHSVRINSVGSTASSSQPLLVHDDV
Description: Mo7e cell proliferation assay (SCF dependent proliferation). Particulars: Table 1; human Mo7e cells stimulated with SCF, 48 hours, CellTiter Glo; 1% FBS; read-out: c-kit (Mo7e). Type of test: cell-based. As for the experimental part:
Mo7e Cell Proliferation Assay The compounds of Table 1 and Table 2 were tested for inhibition of SCF dependent proliferation using human Mo7e cells which endogenously express c-kit in a 384 well format. […] After 48 hours of incubation at 37° C., cell viability was measured by adding 25 uL of CellTiter Glo (Promega) to the cells and the luminescence was measured by a […] camera (Molecular Devices). […] The IC50 value is given as that concentration of the test compound in question that provoke a response halfway between the baseline and maximum responses.
With `Cc1ccc(-c2nc(N3CCC3)no2)cc1NC(=O)c1cnc2ccccn12` [F1], the IC50 is 0.049 µM.
In the case of `Cc1ccc(-c2nc(N3CC(F)(F)C3)no2)cc1NC(=O)c1cnc2ccccn12` [F2], the IC50 amounted to 0.013 µM.
For `Cc1ccc(-c2nc(N3C[C@@H]4C[C@@H](C3)O4)no2)cc1NC(=O)c1cnc2ccccn12` [F3], the IC50 is 0.09 µM.
`Cc1ccc(-c2nc(N3CCC(F)(F)CC3)no2)cc1NC(=O)c1cnc2ccccn12` [F4]: the IC50 was 0.035 µM.
On to `Cc1ccc(-c2nc(N3CCC(F)CC3)no2)cc1NC(=O)c1cnc2ccccn12` [F5], for which the IC50 was found to be 0.034 µM.
For `Cc1ccc2ncc(C(=O)Nc3cc(-c4noc(N5CC(O)(C(F)(F)F)C5)n4)ccc3C)n2c1` [F6], the IC50 was determined as 0.026 µM.
Regarding `Cc1ccc(-c2noc(C3CCOC3)n2)cc1NC(=O)c1cnc2ccccn12` (stereo not shown) [F7], the IC50 stood at 0.078 µM.
In the case of `Cc1ccc(-c2noc(C3CCCCO3)n2)cc1NC(=O)c1cnc2ccccn12` (stereo not shown) [F8], the IC50 amounted to 0.042 µM.
With `COC(=O)N1CCCCC1c1nc(-c2ccc(C)c(NC(=O)c3cnc4ccccn34)c2)no1` (stereo not shown) [F9], the IC50 came to 0.035 µM.
The same measure, in the same setting: with `Cc1ccc(-c2noc([C@H]3CCC(F)(F)CO3)n2)cc1NC(=O)c1cnc2ccccn12` [F12] the figure was 0.032 µM; with `Cc1ccc(-c2noc(C3CN(C(=O)OC(C)(C)C)C3)n2)cc1NC(=O)c1cnc2ccccn12` [F13, tert-butyl 3-(3-(3-(imidazo[1,2-a]pyridine-3-carboxamido)-4-methylphenyl)-1,2,4-oxadiazol-5-yl)azetidine-1-carboxylate], 0.623 µM.
As to `Cc1ccc(-c2noc(C3CN(S(C)(=O)=O)C3)n2)cc1NC(=O)c1cnc2ccccn12` [F14], the IC50 stood at 0.042 µM.
Regarding `COC(=O)N1CC(c2nc(-c3ccc(C)c(NC(=O)c4cnc5ccccn45)c3)no2)C1` [F15, methyl 3-(3-(3-(imidazo[1,2-a]pyridine-3-carboxamido)-4-methylphenyl)-1,2,4-oxadiazol-5-yl)azetidine-1-carboxylate], the IC50 worked out at 0.02 µM.
Consider `CCCS(=O)(=O)N1CC(c2nc(-c3ccc(C)c(NC(=O)c4cnc5ccccn45)c3)no2)C1` [F16], for which the IC50 was determined as 0.035 µM.
With `Cc1ccc(-c2noc(CC3CCOCC3)n2)cc1NC(=O)c1cnc2ccccn12` [F17], the IC50 came out at 0.027 µM.
The same measure, in the same setting: to `Cc1ccc(-c2noc(CC3CCCO3)n2)cc1NC(=O)c1cnc2ccccn12` (stereo not shown) [F18] belongs 0.064 µM; to `CCS(=O)(=O)N1CC(c2nc(-c3ccc(C)c(NC(=O)c4cnc5ccccn45)c3)no2)C1` [F19], 0.033 µM; to `Cc1ccc(-c2noc(CCCN3CCOCC3)n2)cc1NC(=O)c1cnc2ccccn12` [F20], 0.095 µM.
Regarding `Cc1ccc(-c2noc(CN3CC(F)(F)C3)n2)cc1NC(=O)c1cnc2ccccn12` [F21], the IC50 turned out to be 0.044 µM.
`Cc1ccc(-c2noc(CN3CCOCC3)n2)cc1NC(=O)c1cnc2ccccn12` [F22, N-(2-methyl-5-(5-(morpholinomethyl)-1,2,4-oxadiazol-3-yl)phenyl)imidazo[1,2-a]pyridine-3-carboxamide]: the IC50 was found to be 0.073 µM.
Regarding `Cc1ccc(-c2noc(C3CN(S(N)(=O)=O)C3)n2)cc1NC(=O)c1cnc2ccccn12` [F23, N-(2-methyl-5-(5-(1-sulfamoylazetidin-3-yl)-1,2,4-oxadiazol-3-yl)phenyl)imidazo[1,2-a]pyridine-3-carboxamide], the IC50 came out at 0.088 µM.
Regarding `Cc1ccc(-c2noc([C@@H]3CCN3C(=O)OC(C)(C)C)n2)cc1NC(=O)c1cnc2ccccn12` [F24], the IC50 stood at 0.08 µM.
For the compound `Cc1ccc(-c2noc([C@@H]3CCN3S(C)(=O)=O)n2)cc1NC(=O)c1cnc2ccccn12` [F25], the IC50 came out at 0.046 µM.

The test is the same for the next values; noted with them: c-kit (Mo7e) μM, Table 1; human Mo7e cells stimulated with SCF, 48 hours, CellTiter Glo; 1% FBS.
Consider `Cc1ccc(-c2noc(C3CCC(F)(F)CO3)n2)cc1NC(=O)c1cnc2ccccn12` (stereo not shown) [F10, N-(5-(5-(5,5-difluorotetrahydro-2H-pyran-2-yl)-1,2,4-oxadiazol-3-yl)-2-methylphenyl)imidazo[1,2-a]pyridine-3-carboxamide], for which the IC50 worked out at 0.023 µM.
As to `Cc1ccc(-c2noc([C@@H]3CCC(F)(F)CO3)n2)cc1NC(=O)c1cnc2ccccn12` [F11], the IC50 was determined as 0.023 µM.
